Assay results reported in the supplement of paper PMC10307832.

Key:
Test in all cases: relative viability (nuclei count vs DMSO), 5 days (fraction); higher = more cells survive
Gemcitabine + Dasatinib = compound: Nc1ccn([C@@H]2O[C@H](CO)[C@@H](O)C2(F)F)c(=O)n1 [Gemcitabine] + Cc1nc(Nc2ncc(C(=O)Nc3c(C)cccc3Cl)s2)cc(N2CCN(CCO)CC2)n1 [Dasatinib] (partner 0.075 µM)
How it was run: (§1)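 Cells from lung cancer lines were seeded into 1536-well plates and, one day later, dosed by pin tool. Treatments were either a single drug or a fixed dose of an anchor drug with five library-drug doses (not always all listed) in √10 steps. After 5 days, nuclei were stained in a one-step fixation (final 0.05% Triton X-100, 1% formaldehyde, 1 ug/ml Hoechst) and counted on 4× images, and relative viability is the treated-to-vehicle nuclei ratio, as the median of duplicate plates.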

Gemcitabine + Luminespib = compound: Nc1ccn([C@@H]2O[C@H](CO)[C@@H](O)C2(F)F)c(=O)n1 [Gemcitabine] + CCNC(=O)c1noc(-c2cc(C(C)C)c(O)cc2O)c1-c1ccc(CN2CCOCC2)cc1 [Luminespib] (partner 0.01 µM)
How it was run: as §1

Gemcitabine + Alpelisib = compound: Nc1ccn([C@@H]2O[C@H](CO)[C@@H](O)C2(F)F)c(=O)n1 [Gemcitabine] + Cc1nc(NC(=O)N2CCC[C@H]2C(N)=O)sc1-c1ccnc(C(C)(C)C(F)(F)F)c1 [Alpelisib] (partner 2 µM)
How it was run: as §1

Gemcitabine + Tozasertib = compound: Nc1ccn([C@@H]2O[C@H](CO)[C@@H](O)C2(F)F)c(=O)n1 [Gemcitabine] + Cc1cc(Nc2cc(N3CCN(C)CC3)nc(Sc3ccc(NC(=O)C4CC4)cc3)n2)n[nH]1 [Tozasertib] (partner 0.1 µM)
How it was run: as §1

Cell Line	relative viability (Gemcitabine + Dasatinib; first compound 0.001 µM)	relative viability (Gemcitabine + Dasatinib; first compound 0.003162 µM)	relative viability (Gemcitabine + Dasatinib; first compound 0.01 µM)	relative viability (Gemcitabine + Dasatinib; first compound 0.03162 µM)	relative viability (Gemcitabine + Dasatinib; first compound 0.1 µM)	relative viability (Gemcitabine + Luminespib; first compound 0.001 µM)	relative viability (Gemcitabine + Luminespib; first compound 0.003162 µM)	relative viability (Gemcitabine + Luminespib; first compound 0.01 µM)	relative viability (Gemcitabine + Luminespib; first compound 0.03162 µM)	relative viability (Gemcitabine + Luminespib; first compound 0.1 µM)	relative viability (Gemcitabine + Alpelisib; first compound 0.001 µM)	relative viability (Gemcitabine + Alpelisib; first compound 0.003162 µM)	relative viability (Gemcitabine + Alpelisib; first compound 0.01 µM)	relative viability (Gemcitabine + Alpelisib; first compound 0.03162 µM)	relative viability (Gemcitabine + Alpelisib; first compound 0.1 µM)	relative viability (Gemcitabine + Tozasertib; first compound 0.001 µM)	relative viability (Gemcitabine + Tozasertib; first compound 0.003162 µM)	relative viability (Gemcitabine + Tozasertib; first compound 0.01 µM)	relative viability (Gemcitabine + Tozasertib; first compound 0.03162 µM)	relative viability (Gemcitabine + Tozasertib; first compound 0.1 µM)
NCI-H1355	0.813	0.695	0.226	0.196	0.143	0.724	0.62	0.24	0.22	0.213	0.756	0.569	0.135	0.156	0.116	0.508	0.393	0.189	0.18	0.169
NCI-H1395	0.409	0.368	0.371	0.321	0.31	0.739	0.607	0.391	0.361	0.343	1.19	0.815	0.459	0.369	0.406	0.676	0.674	0.429	0.367	0.334
NCI-H1437	0.392	0.274	0.285	0.139	0.107	1.08	1.02	0.645	0.391	0.191	1.15	0.873	0.373	0.185	0.0956	0.447	0.418	0.347	0.297	0.156
NCI-H1651	0.412	0.495	0.257	0.0946	0.0687	0.906	0.893	0.731	0.278	0.134	0.923	0.967	0.889	0.159	0.0819	0.621	0.683	0.693	0.177	0.0714
NCI-H1666	0.797	0.796	0.715	0.52	0.375	1.01	0.937	0.957	0.595	0.393	0.863	0.92	0.364	0.232	0.279	0.622	0.615	0.582	0.387	0.337
NCI-H1734	0.385	0.354	0.111	0.0942	0.091	0.159	0.157	0.119	0.136	0.119	0.567	0.627	0.213	0.153	0.0967	0.243	0.264	0.125	0.104	0.105
NCI-H1755	0.454	0.457	0.392	0.243	0.207	0.451	0.505	0.491	0.346	0.26	0.897	0.919	0.768	0.25	0.215	0.594	0.564	0.411	0.321	0.252
NCI-H1793	0.368	0.388	0.186	0.12	0.12	0.17	0.179	0.15	0.125	0.137	0.706	0.594	0.354	0.156	0.147	0.421	0.507	0.202	0.133	0.12
NCI-H1915	0.357	0.344	0.295	0.255	0.181	0.826	0.759	0.693	0.669	0.356	1.02	1.11	1.04	0.711	0.308	0.461	0.462	0.397	0.317	0.193
NCI-H1944	0.208	0.209	0.182	0.153	0.123	0.73	0.764	0.758	0.458	0.183	0.855	0.845	0.783	0.366	0.14	0.253	0.266	0.251	0.188	0.105
NCI-H1975	0.419	0.574	0.241	0.0982	0.103	0.173	0.158	0.154	0.182	0.13	0.795	0.792	0.314	0.18	0.157	0.892	0.561	0.256	0.132	0.0954
NCI-H1993	0.617	0.529	0.446	0.509	0.42	0.61	0.85	0.579	0.508	0.45	0.706	0.642	0.528	0.528	0.491	0.54	0.633	0.619	0.494	0.531
NCI-H2009	0.297	0.219	0.101	0.101	0.0766	1.08	0.751	0.325	0.179	0.126	1.15	0.552	0.276	0.12	0.112	0.854	0.65	0.24	0.163	0.11
NCI-H2023	0.529	0.533	0.207	0.0853	0.0604	0.96	0.755	0.623	0.141	0.0596	0.703	0.542	0.415	0.214	0.066	0.409	0.385	0.233	0.101	0.0648
NCI-H2085	0.221	0.232	0.287	0.206	0.158	0.435	0.477	0.369	0.298	0.263	0.892	0.959	0.765	0.57	0.429	0.729	0.858	0.731	0.562	0.443
NCI-H2087	0.746	0.499	0.169	0.0893	0.0871	0.178	0.159	0.14	0.147	0.138	1.26	0.872	0.38	0.15	0.14	0.31	0.204	0.139	0.0946	0.0735
